Key:
Format in all cases: cell-based
[1] = target: T1, human PPARα (166–467aa) ligand binding domain (Homo sapiens, UniProt Q07869); assay: PPAR transfection (Gal4-LBD luciferase reporter) assay, hPPARα; settings: for EC50: 16 hours, luciferase activity, read-out: hPPAR, EC50 α (agonist activity)
T1 construct: human PPARα (166–467aa); expressed in transfected cells; host or cells: COS-7
T1 sequence (Q07869 166-467): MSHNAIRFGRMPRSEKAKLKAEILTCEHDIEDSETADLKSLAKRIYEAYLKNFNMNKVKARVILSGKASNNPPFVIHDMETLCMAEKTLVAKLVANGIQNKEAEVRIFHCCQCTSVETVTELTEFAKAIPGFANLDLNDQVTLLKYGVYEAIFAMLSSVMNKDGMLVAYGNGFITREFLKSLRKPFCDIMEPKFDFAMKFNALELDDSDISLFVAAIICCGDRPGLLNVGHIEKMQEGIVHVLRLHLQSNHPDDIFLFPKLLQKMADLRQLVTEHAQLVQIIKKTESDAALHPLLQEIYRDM
Procedure: (§1) COS-7 cells, which is African green monkey kidney cell line, were used for all transfection assays. Cells were cultured in DMEM medium supplemented with 10% fetal bovine serum, glutamic acid, and an antibiotic under humidified 5% CO2 atmosphere.
(§2) Cells were transfected by lipofectamine reagent with a mixture containing expression plasmid, firefly luciferase reporter plasmid. And a β-galactosidase expression plasmid used as an internal control for transfection efficiency.
(§3) Transiently transfected cells were incubated with DMEM with 0.2% FCS with or without compound. And after 16 hours, luciferase activity and β-galactosidase activity of cell lysate were measured.
(§4) Each compound was dissolved in and diluted with dimethyl sulfoxide (DMSO), and the DMSO concentration of the DMEM medium (containing 0.2% serum) was adjusted to 0.1% upon treatment of cells.

[2] = target: T2, human PPARγ (182–505aa) ligand binding domain (Homo sapiens, UniProt P37231); assay: PPAR transfection (Gal4-LBD luciferase reporter) assay, hPPARγ; settings: for EC50: 16 hours, luciferase activity, read-out: hPPAR, EC50 γ (agonist activity); for activation factor, hPPARγ (FIGS. 1 to 5): at 10-fold concentration of EC50 value in activation of hPPARα, ratio to DMSO control
T2 construct: γ(182–505aa); expressed in transfected cells; host or cells: COS-7
T2 sequence (P37231 182-505): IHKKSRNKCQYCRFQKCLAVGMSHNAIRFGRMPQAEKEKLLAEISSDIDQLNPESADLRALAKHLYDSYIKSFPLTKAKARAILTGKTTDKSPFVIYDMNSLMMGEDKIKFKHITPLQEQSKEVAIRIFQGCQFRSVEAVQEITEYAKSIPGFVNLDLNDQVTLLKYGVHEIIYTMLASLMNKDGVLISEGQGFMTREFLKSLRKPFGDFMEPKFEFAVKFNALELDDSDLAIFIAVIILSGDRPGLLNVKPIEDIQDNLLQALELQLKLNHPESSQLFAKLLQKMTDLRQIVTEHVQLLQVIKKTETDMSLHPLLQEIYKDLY
Procedure: as §1, §2, §3, §4

[3] = target: T3, human PPARδ (137–441aa) ligand binding domain (Homo sapiens, UniProt Q03181); assay: PPAR transfection (Gal4-LBD luciferase reporter) assay, hPPARδ; settings: for EC50: 16 hours, luciferase activity, read-out: hPPAR, EC50 δ (agonist activity); for activation factor, hPPARδ (FIGS. 1 to 5): at 10-fold concentration of EC50 value in activation of hPPARα, ratio to DMSO control
T3 construct: δ (137–441aa); expressed in transfected cells; host or cells: COS-7
T3 sequence (Q03181 137-441): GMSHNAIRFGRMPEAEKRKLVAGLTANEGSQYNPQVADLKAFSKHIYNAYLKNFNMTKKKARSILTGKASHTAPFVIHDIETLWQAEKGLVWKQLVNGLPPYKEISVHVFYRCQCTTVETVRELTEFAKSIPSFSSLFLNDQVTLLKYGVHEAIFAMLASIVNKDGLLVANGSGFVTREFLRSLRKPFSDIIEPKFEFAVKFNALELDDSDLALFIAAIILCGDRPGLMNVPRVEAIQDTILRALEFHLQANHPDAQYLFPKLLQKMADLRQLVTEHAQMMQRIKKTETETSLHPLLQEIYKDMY
Procedure: as §1, §2, §3, §4

| Compound | EC50 ([1]; transfected COS-7 cells) [µM] | EC50 ([2]; transfected COS-7 cells) [µM] | EC50 ([3]; transfected COS-7 cells) [µM] | activation factor, hPPARγ (FIGS. 1 to 5) [2] | activation factor, hPPARδ (FIGS. 1 to 5) [3] | activation factor, hPPARα (FIGS. 1 to 5) ([1]; at EC50 value in activation of hPPARα and at 10 times that concentration, ratio to DMSO control) | activation of hPPARα isoform ([1]; transfected COS-7 cells) | activation of hPPARγ isoform ([2]; transfected COS-7 cells) | activation of hPPARδ isoform ([3]; transfected COS-7 cells) |
| --- | --- | --- | --- | --- | --- | --- | --- | --- | --- |
| CCC(Oc1cccc(CCN(CCOc2ccc(OC)cc2)c2nc3cc(Cl)ccc3o2)c1)C(=O)O (stereo not drawn) [Example 47, 2-[3-[2-[N-(5-Chlorobenzoxazol-2-yl)-N-2-(4-methoxyphenoxy)ethyl]aminoethyl]phenoxy]butyric acid] | 0.04 | > 50 | 1.5 | – | – | – | – | – | – |
| CC(Oc1cccc(CCN(CCOc2ccccc2)c2nc3cc(F)ccc3o2)c1)C(=O)O (stereo not drawn) [Example 43, 2-[3-[2-[N-(5-Fluorobenzoxazol-2-yl)-N-2-phenoxyethyl]aminoethyl]phenoxy]propionic acid] | 0.07 | > 100 | 5.3 | – | – | – | – | – | – |
| CC(C)(Oc1cccc(CCN(CCOc2ccccc2)c2nc3ccccc3o2)c1)C(=O)O [Example 78, 2-[3-[2-[N-(Benzoxazol-2-yl)-N-2-phenoxyethyl]aminoethyl]phenoxy]-2-methylpropionic acid] | 0.03 | 1.1 | > 100 | – | – | – | – | – | – |
| O=C(O)COc1cccc(CN(CCCOc2ccccc2)c2nc3ccccc3o2)c1 [Example 12, 3-[[N-(Benzoxazol-2-yl)-N-3-phenoxypropyl]aminomethyl]phenoxyacetic acid] | 1.2 | > 100 | > 100 | – | – | – | – | – | – |
| CCC(Oc1cccc(CN(CCCOc2ccc(C)cc2)c2nc3ccccc3o2)c1)C(=O)O (stereo not drawn) [Example 146] | 0.001 | 0.2 | 0.1 | – | – | – | – | – | – |
| CCC(Oc1cccc(CCN(CCCOc2ccc(F)cc2)c2nc3cc(OC)ccc3o2)c1)C(=O)O (stereo not drawn) [Example 51, 2-[3-[2-[N-3-(4-Fluorophenoxy)propyl-N-(5-methoxybenzoxazol-2-yl)]aminoethyl]phenoxy]butyric acid] | 0.03 | 3.8 | 1.4 | – | – | – | – | – | – |
| CCC(Oc1cccc(CCN(CCOc2ccc(OC)cc2)c2nc3cc(OC)ccc3o2)c1)C(=O)O (stereo not drawn) [Example 48, 2-[3-[2-[N-(5-Methoxybenzoxazol-2-yl)-N-2-(4-methoxyphenoxy)ethyl]aminoethyl]phenoxy]butyric acid] | 0.08 | 5.2 | 2 | – | – | – | – | – | – |
| CC(C)(Oc1ccc(CCCN(CCc2ccccc2)C(=O)c2nc3ccccc3s2)cc1)C(=O)O [Compound B, reference compound] | 0.12 | 0.7 | 0.9 | strongly activate | strongly activate | – | – | – | – |
| CC(Oc1cccc(CCN(CCOc2ccccc2)c2nc3ccccc3o2)c1)C(=O)O (stereo not drawn) [Example 31, 2-[3-[2-[N-(Benzoxazol-2-yl)-N-2-phenoxyethyl]aminoethyl]phenoxy]propionic acid] | 0.09 | > 100 | > 50 | – | – | – | – | – | – |
| CCC(Oc1cccc(CN(CCOc2ccc(Cl)cc2)c2nc3ccccc3o2)c1)C(=O)O (stereo not drawn) [Example 2, 2-[3-[[N-(Benzoxazol-2-yl)-N-2-(4-chlorophenoxy)ethyl]aminomethyl]phenoxy]butyric acid] | 0.01 | 7.3 | 2.5 | substantially no activation | substantially no activation | – | – | – | – |
| CCC(Oc1cccc(CCN(CCOc2ccc(OC)cc2)c2nc3cc(F)ccc3o2)c1)C(=O)O (stereo not drawn) [Example 46, 2-[3-[2-[N-(5-Fluorobenzoxazol-2-yl)-N-2-(4-methoxyphenoxy)ethyl]aminoethyl]phenoxy]butyric acid] | 0.01 | > 100 | 1.8 | – | – | – | – | – | – |
| CC(Oc1cccc(CN(CCOc2ccc(F)cc2)c2nc3ccccc3o2)c1)C(=O)O (stereo not drawn) [Example 186] | 0.02 | 5.5 | 10 | – | – | – | – | – | – |
| COc1ccc(OCCCN(Cc2cccc(OC(C)(C)C(=O)O)c2)c2nc3ccccc3o2)cc1 [Example 15, 2-[3-[[N-(Benzoxazol-2-yl)-N-3-(4-methoxyphenoxy)propyl]aminomethyl]phenoxy]-2-methylpropionic acid] | 0.05 | > 100 | 1.5 | – | – | – | – | – | – |

More lines, now with the values ahead:

| EC50 ([1]; transfected COS-7 cells) [µM] | EC50 ([2]; transfected COS-7 cells) [µM] | EC50 ([3]; transfected COS-7 cells) [µM] | activation factor, hPPARγ (FIGS. 1 to 5) [2] | activation factor, hPPARδ (FIGS. 1 to 5) [3] | activation factor, hPPARα (FIGS. 1 to 5) ([1]; at EC50 value in activation of hPPARα and at 10 times that concentration, ratio to DMSO control) | activation of hPPARα isoform ([1]; transfected COS-7 cells) | activation of hPPARγ isoform ([2]; transfected COS-7 cells) | activation of hPPARδ isoform ([3]; transfected COS-7 cells) | Compound |
| --- | --- | --- | --- | --- | --- | --- | --- | --- | --- |
| 0.04 | 2.6 | 1.4 | – | – | – | – | – | – | CCC(Oc1cccc(CCN(CCCOc2ccc(F)cc2)c2nc3ccccc3o2)c1)C(=O)O (stereo not drawn) [Example 50, 2-[3-[2-[N-(Benzoxazol-2-yl)-N-3-(4-fluorophenoxy)propyl]aminoethyl]phenoxy]butyric acid] |
| 0.01 | > 100 | 1.6 | substantially no activation | substantially no activation | – | – | – | – | CCC(Oc1cccc(CN(CCCOc2ccc(F)cc2)c2nc3ccccc3o2)c1)C(=O)O (stereo not drawn) [Example 1, 2-[3-[[N-(Benzoxazol-2-yl)-N-3-(4-fluorophenoxy)propyl]aminomethyl]phenoxy]butyric acid] |
| 0.06 | 1.2 | 1.6 | – | – | – | – | – | – | CC(Oc1cccc(CCN(CCOc2ccc(F)cc2)c2nc3ccccc3o2)c1)C(=O)O (stereo not drawn) [Example 34, 2-[3-[2-[N-(Benzoxazol-2-yl)-N-2-(4-fluorophenoxy)ethyl]aminoethyl]phenoxy]propionic acid] |
| 0.08 | > 100 | 1.6 | – | – | – | – | – | – | COc1ccc2oc(N(CCOc3ccccc3)CCc3cccc(OC(C)C(=O)O)c3)nc2c1 (stereo not drawn) [Example 44, 2-[3-[2-[N-(5-Methoxybenzoxazol-2-yl)-N-2-phenoxyethyl]aminoethyl]phenoxy]propionic acid] |
| 0.013 | > 10 | > 100 | – | – | – | – | – | – | CCC(Oc1cccc(CN(CCOc2ccc(OS(C)(=O)=O)cc2)c2nc3ccccc3o2)c1)C(=O)O (stereo not drawn) [Example 231] |
| 0.006 | > 10 | 1.8 | – | – | – | – | – | – | CCC(Oc1cccc(CN(CCOc2ccccc2)c2nc3cc(F)ccc3o2)c1)C(=O)O (stereo not drawn) [Example 229] |
| 0.06 | 3.9 | 1.9 | – | – | – | – | – | – | CCC(Oc1cccc(CCN(CCCOc2ccc(Cl)cc2)c2nc3ccccc3o2)c1)C(=O)O (stereo not drawn) [Example 53, 2-[3-[2-[N-(Benzoxazol-2-yl)-N-3-(4-chlorophenoxy)propyl]aminoethyl]phenoxy]butyric acid] |
| – | – | – | activated no hPPAR isoform | activated no hPPAR isoform | activated no hPPAR isoform | no activation | no activation | no activation | CC(C)(Oc1ccc(CCCN(CCc2ccccc2)c2nc3ccccc3[nH]2)cc1)C(=O)O [Compound C, reference compound] |
| 0.0001 | 1.2 | > 100 | – | – | – | – | – | – | CC(Oc1cccc(CN(CCCOc2cccc(N(C)C)c2)c2nc3ccccc3o2)c1)C(=O)O (stereo not drawn) [Example 19, 2-[3-[[N-(Benzoxazol-2-yl)-N-3-(3-dimethylaminophenoxy)propyl]aminomethyl]phenoxy]propionic acid] |
| 0.002 | 0.91 | 1.6 | – | – | – | – | – | – | CC[C@@H](Oc1cccc(CN(CCCOc2ccccc2)c2nc3ccccc3o2)c1)C(=O)O [Example 83, (R)-2-[[3-[N-(Benzoxazol-2-yl)-N-3-phenoxypropyl]aminomethyl]phenoxy]butyric acid] |
| 0.02 | 1.5 | 1.5 | – | – | – | – | – | – | CCC(Oc1cccc(CCN(CCCOc2ccc(OC)cc2)c2nc3cc(F)ccc3o2)c1)C(=O)O (stereo not drawn) [Example 49, 2-[3-[2-[N-(5-Fluorobenzoxazol-2-yl)-N-3-(4-methoxyphenoxy)propyl]aminoethyl]phenoxy]butyric acid] |
